Experimental findings from patent publication US12527773B2, “Flavi-block: a pan-flavivirus inhibitor” (Baden-Württemberg Stiftung GmbH, priority 2020, dated 2026) are described below.

In one series the test system is Huh7.5 cells. In words: Viability of treated Huh7.5 cells by MTT assay. It is filed as cell-based. To be noted: 10 μM, 24 h after treatment. The method, then: Huh7.5 cells were electroporated with HCV-JC1-Luc (reporter virus expressing luciferase via IRES) RNA and treated 24 h later with the best 20 candidates (10 μM). After another 24 h the supernatants were harvested. To quantify infectious particles, untreated Huh7.5 cells were inoculated with the supernatants and 36 h later the luciferase activity was measured. The viability of the same cells was determined 24 h after treatment with inhibitor by MTT assay (tetrazolium salt which is reduced in metabolically active cells resulting in a color change). For both parameters, 100% corresponds to the release or viability of the untreated or DMSO treated control. uninf.=not infected; untr.=not treated. Mean values and SD were derived from n =3 independent infections.
The viability of the same cells was determined 24 h after treatment with the candidate substances by MTT assay (tetrazolium salt reduced in metabolically active cells resulting in a color change) (FIG. 2). For both parameters, 100% of release or viability corresponds to the untreated or DMSO-treated control.

In a further series the test system is DENV-2. In words: Antiviral effect on DENV (virus release and entry), Vero cells, MOI 5. The series is classed as cell-based, Dengue virus. Particulars: co-treatment. The method, then:
(A) Vero cells were seeded and infected with DENV-2 at a multiplicity of infection (MOI) of 5. For co-treatment cells were incubated with a premixed suspension of drug and virus, for post-treatment with virus only for 2 h. Cells were subsequently washed with PBS and cultivated for co-treatment in DMEM supplemented with 2% FCS, for post-treatment in DMEM supplemented with 2% FCS spiked with the indicated concentrations of C10. The drug containing medium for post-treated cells was removed after 2 h and replenished with fresh DMEM supplemented with 2% FCS. 24 h after infection the supernatants were used for a Plaque assay. (B) RNA extraction; n=3 with SEM. (C, D) Cells were lysed for Western blot analysis using antibodies against viral proteins NS3 and NS5 and tubulin as a loading control.
For this purpose, Vero cells were plated and infected with DENV-2 at an infection multiplicity (MOI) of 5. For co-treatment, the cells were incubated with a previously mixed suspension of active substance and virus, for post-treatment with the virus alone, each for 2 h. The cells were then washed with PBS and cultivated for co-treatment in DMEM with 2 % FCS, for post-treatment in DMEM with 2 % FCS mixed with the indicated concentrations of compound C10. For the post-treated cells, the medium containing the active substance was removed after 2 h and replaced by fresh medium with 2 % FCS. […]

In a further series the test system is DENV1. The experiment in a line: Plaque assay of released virus, DENV1-infected Vero cells. To be noted: Dengue virus. The series is classed as cell-based. How it is done:
(§1) Vero cells were infected with DENV1-4 at an MOI of 1 for 2 h (post infection, p.i., (A)), after which virus was removed, and fresh maintenance medium containing 2% FCS together with the indicated concentration of C10 added. For co-treat condition (c.t., (B)), Vero cells were infected with DENV1-4 at an MOI of 1 in the presence of C10 for 2 h, followed by removal of the virus/C10 inoculums, and addition of fresh 2% fetal calf serum maintenance medium. […] Results represent the mean ±SD for duplicate wells from a single assay, representative of 2 independent experiments (cf. Tables 2A and 2B, infra, for pooled data).
(§2) Vero and BHK-21 cells were maintained in DMEM media supplemented with 10% heat-inactivated FBS at 37° C. in a humidified incubator supplemented with 5% CO2; A549 cells were maintained in F-12K medium supplemented with 10% heat-inactivated Fetal Bovine Serum (FBS), 2 mM L-glutamine, 50 U/I penicillin, 0.05 mg/l streptomycin. […] Viral titer was subsequently determined by plaque assay (see below).
(§3) Vero cells were seeded into 24-well plates at a density of 2×10^5 cells/well and grown overnight in culture medium at 37° C. with 5% CO2 prior to infection with RSV, KUNV, ZIKV as indicated. […] The stain was removed by rinsing the cells with tap water, and the viral plaques were counted visually. […]

For a further series, the system named is DENV2. The experiment in a line: Plaque assay of released virus, DENV2-infected Vero cells. It is filed as cell-based. To be noted: Dengue virus. How it is done: as §1, §2, §3
The test system of a further series is DENV3. In words: Plaque assay of released virus, DENV3-infected Vero cells. The series is classed as cell-based. To be noted: Dengue virus. How it is done: as §1, §2, §3
The subject of the next series is KUNV (MRM61C strain). In words: Plaque assay of released virus, KUNV-infected Vero cells. Particulars: West Nile virus. The series is classed as cell-based, Kunjin virus. The method, then:
Vero cells were infected with KUNV at an MOI of 1 for 2 h (post infection), after which virus was removed, and fresh maintenance medium containing 2% FCS together with the indicated concentration of C10 added. For co-treat condition, Vero cells were infected with KUNV at an MOI of 1 in the presence of C10 for 2 h, followed by removal of the virus/C10 inoculums, and addition of fresh 2% fetal calf serum maintenance medium.
(§4) Vero and BHK-21 cells were maintained in DMEM media supplemented with 10% heat-inactivated FBS at 37° C. in a humidified incubator supplemented with 5% CO2; A549 cells were maintained in F-12K medium supplemented with 10% heat-inactivated Fetal Bovine Serum (FBS), 2 mM L-glutamine, 50 U/I penicillin, 0.05 mg/l streptomycin. DENV-1-4 strains, cell culture conditions and Gen-Bank accession numbers, as well as details of RSV strains and culture are known in the art. […] Viral titer was subsequently determined by plaque assay (see below).
Vero cells were seeded into 24-well plates at a density of 2×10^5 cells/well and grown overnight in culture medium at 37° C. with 5% CO2 prior to infection with RSV, KUNV, ZIKV as indicated. BHK-21 cells were used for DENV1-4. […] The stain was removed by rinsing the cells with tap water, and the viral plaques were counted visually. […]

The next series has as its system RSV. The experiment in a line: Plaque assay, RSV infection (A549 cells lysed at 22 h). The series is classed as cell-based. Particulars: human respiratory syncytial virus. How it is done:
as §4
Vero cells were seeded into 24-well plates at a density of 2×10^5 cells/well and grown overnight in culture medium at 37° C. with 5% CO2 prior to infection with RSV, KUNV, ZIKV as indicated. BHK-21 cells were used for DENV1-4. The virus inoculum was removed and replaced with semisolid overlays of 0.8% aquacide II (Calbiochem) in DMEM+2% FBS, and the mixture was incubated at 37° C. with 5% CO2. After 3-5 days, the cells were fixed with neutral buffered formalin (Sigma) for 3 h at room temperature, rinsed with tap water, and stained with 1% crystal violet for 10 min. The stain was removed by rinsing the cells with tap water, and the viral plaques were counted visually. Dose-response curves were plotted from the plaque number versus the log of the concentration of the test compounds. […]

The target of another series is T1, DENV capsid protein (Dengue virus type 2, UniProt P29990).
T1 construct: recombinant DENV capsid protein; made in house; host or cells: E. coli
In words: Crosslinking of recombinant DENV capsid protein (Western blot). It is filed as biochemical. The source says:
DSS was included as a positive control.
(A western blot detects proteins with antibodies after separation by electrophoresis.)

The next series relates to HCV. The experiment in a line: Antiviral effect on HCV (virus release), Jc1-Luc-IRES in Huh7.5 cells.

The structures appear in SMILES notation. Read-outs that look alike come from different tables or passages of the source.

T1 sequence (P29990 1-100): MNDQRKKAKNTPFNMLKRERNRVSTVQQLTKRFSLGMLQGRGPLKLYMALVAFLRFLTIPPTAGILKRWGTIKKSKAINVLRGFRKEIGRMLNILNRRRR

As for `CCN1/C(=C\C=C\c2sc3cc(NC(C)=O)ccc3[n+]2CC)Sc2cc(NC(C)=O)ccc21.[I-]` [C10, 6-acetamido-2-((1E,3E)-3-(6-acetamido-3-ethylbenzo[d]thiazol-2(3H)-ylidene)prop-1-en-1-yl)-3-ethylbenzo[d]thiazol-3-ium iodide], the “cell viability (MTT)” value in the series on Huh7.5 cells is reported as “no negative effect on cell viability”. Further, in the series with DENV-2 (1 μM, compared to DMSO), the “viral proteins in cells (Western blot NS3, NS5)” value was “viral proteins are detectable in the cells, albeit at lower amounts”. In addition, the “productive infection (Western blot NS3, NS5)” value with DENV-2 (10 μM) is reported as “prevents a productive infection of the cells”. Further, the EC50 in the series on DENV1 (read-out: EC50 from plaque assays, DENV1, c.t. (co-treat)) amounted to 0.04 µM; in the series on DENV1 (read-out: EC50 from plaque assays, DENV1, p.i. (post infection)), 0.11 µM; in the series on DENV2 (read-out: EC50 from plaque assays, DENV2, c.t.) it was 0.04 µM; with DENV2 (read-out: EC50 from plaque assays, DENV2, p.i.), 1.3 µM; in the series with DENV3 (read-out: EC50 from plaque assays, DENV3, c.t.), 0.01 µM; in the series with DENV3 (read-out: EC50 from plaque assays, DENV3, p.i.), 0.6 µM. Besides, the EC50 with KUNV (MRM61C strain) (read-out: EC50 from plaque assays, KUNV, c.t.) is 0.05 µM; in the series on KUNV (MRM61C strain) (read-out: EC50 from plaque assays, KUNV, p.i.), 0.42 µM; with RSV (c.t., read-out: EC50 from plaque assays), 0.89 µM; in the series with RSV (co-added with virus (text, Tables 2A and 2B), read-out: EC50), about 0.8 µM. On DENV capsid protein, the “effect on oligomerization state of DENV capsid protein” value is “enhance the presence of dimers, tetramers and higher oligomeric states”. Also, the “antiviral effect on release of infectious HCV” value in the series with HCV (24 h treatment) is listed as “antiviral effects even at low concentrations”. The “therapeutic index CC50/EC50” value with HCV (HCV virus release, Huh7.5) is reported as “approximately 590”.

One may read the EC50 as the concentration needed to bring the measured effect to its halfway point.
